Results as given in the supplement of paper PMC10307832.

Experiments:
Test in all cases: relative viability (nuclei count vs DMSO), 5 days (fraction); higher = more cells survive
BEN = test system: BEN
In short: (§1)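 After 5 days of treatment, lung cancer cells in 1536-well plates were fixed and stained in a single step (final 0.05% Triton X-100, 1% formaldehyde, 1 ug/ml Hoechst) and their nuclei counted on 4× images. Treatment had been applied by pin tool the day after seeding as one drug alone or as a fixed anchor-drug dose with five library-drug doses (not always all listed) in √10 steps. Relative viability is the nuclei count of treated wells divided by that of vehicle wells, and values are medians of duplicate plates.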

EMC-BAC-2 = test system: EMC-BAC-2
In short: as §1

H3255 = test system: H3255
In short: as §1

HOP-62 = test system: HOP-62
In short: as §1

LCLC-97TM1 = test system: LCLC-97TM1
In short: as §1

LXF-289 = test system: LXF-289
In short: as §1

NCI-H1563 = test system: NCI-H1563
In short: as §1

NCI-H1650 = test system: NCI-H1650
In short: as §1

NCI-H1915 = test system: NCI-H1915
In short: as §1

NCI-H1993 = test system: NCI-H1993
In short: as §1

NCI-H2009 = test system: NCI-H2009
In short: as §1

NCI-H2023 = test system: NCI-H2023
In short: as §1

NCI-H2085 = test system: NCI-H2085
In short: as §1

NCI-H2126 = test system: NCI-H2126
In short: as §1

NCI-H2347 = test system: NCI-H2347
In short: as §1

NCI-H322M = test system: NCI-H322M
In short: as §1

NCI-H647 = test system: NCI-H647
In short: as §1

NCI-H661 = test system: NCI-H661
In short: as §1

NCI-H727 = test system: NCI-H727
In short: as §1

PC-14 = test system: PC-14
In short: as §1

SK-LU-1 = test system: SK-LU-1
In short: as §1

SW 1573 = test system: SW 1573
In short: as §1

## CC(C)Oc1cc(Nc2nc(N[C@@H](C)c3ccc(F)cn3)ncc2Cl)n[nH]1 [AZ23] + CC(C)C[C@H](NC(=O)[C@H](Cc1ccccc1)NC(=O)c1cnccn1)B(O)O [Bortezomib] (partner 0.002 µM)
BEN; first compound 0.01 µM
  relative viability: 0.817
BEN; first compound 0.03162 µM
  relative viability: 1.08
BEN; first compound 0.3162 µM
  relative viability: 0.867
EMC-BAC-2; first compound 0.01 µM
  relative viability: 1.2
EMC-BAC-2; first compound 0.03162 µM
  relative viability: 1.11
EMC-BAC-2; first compound 0.3162 µM
  relative viability: 1.16
H3255; first compound 0.01 µM
  relative viability: 0.64
H3255; first compound 0.03162 µM
  relative viability: 1.06
H3255; first compound 0.3162 µM
  relative viability: 0.81
HOP-62; first compound 0.01 µM
  relative viability: 0.821
HOP-62; first compound 0.03162 µM
  relative viability: 0.517
HOP-62; first compound 0.3162 µM
  relative viability: 0.867
LCLC-97TM1; first compound 0.01 µM
  relative viability: 0.277
LCLC-97TM1; first compound 0.03162 µM
  relative viability: 1
LCLC-97TM1; first compound 0.3162 µM
  relative viability: 0.755
LXF-289; first compound 0.01 µM
  relative viability: 1.11
LXF-289; first compound 0.03162 µM
  relative viability: 1.05
LXF-289; first compound 0.3162 µM
  relative viability: 0.979
NCI-H1563; first compound 0.01 µM
  relative viability: 0.931
NCI-H1563; first compound 0.03162 µM
  relative viability: 1.01
NCI-H1563; first compound 0.3162 µM
  relative viability: 0.816
NCI-H1650; first compound 0.01 µM
  relative viability: 0.189
NCI-H1650; first compound 0.03162 µM
  relative viability: 0.242
NCI-H1650; first compound 0.3162 µM
  relative viability: 0.187
NCI-H1915; first compound 0.01 µM
  relative viability: 1.26
NCI-H1915; first compound 0.03162 µM
  relative viability: 1.09
NCI-H1915; first compound 0.3162 µM
  relative viability: 1.05
NCI-H1993; first compound 0.01 µM
  relative viability: 0.911
NCI-H1993; first compound 0.3162 µM
  relative viability: 1.16
NCI-H2009; first compound 0.01 µM
  relative viability: 1.1
NCI-H2009; first compound 0.03162 µM
  relative viability: 1.06
NCI-H2009; first compound 0.3162 µM
  relative viability: 1.21
NCI-H2023; first compound 0.03162 µM
  relative viability: 0.959
NCI-H2023; first compound 0.3162 µM
  relative viability: 1.22
NCI-H2085; first compound 0.01 µM
  relative viability: 0.991
NCI-H2085; first compound 0.03162 µM
  relative viability: 1.03
NCI-H2085; first compound 0.3162 µM
  relative viability: 1.01
NCI-H2126; first compound 0.01 µM
  relative viability: 1.18
NCI-H2126; first compound 0.03162 µM
  relative viability: 1.18
NCI-H2126; first compound 0.3162 µM
  relative viability: 1.09
NCI-H2347; first compound 0.01 µM
  relative viability: 0.927
NCI-H2347; first compound 0.03162 µM
  relative viability: 1.04
NCI-H2347; first compound 0.3162 µM
  relative viability: 0.979
NCI-H322M; first compound 0.01 µM
  relative viability: 1.2
NCI-H322M; first compound 0.03162 µM
  relative viability: 1.32
NCI-H322M; first compound 0.3162 µM
  relative viability: 1.19
NCI-H647; first compound 0.01 µM
  relative viability: 1.41
NCI-H647; first compound 0.03162 µM
  relative viability: 1.16
NCI-H647; first compound 0.3162 µM
  relative viability: 1.12
NCI-H661; first compound 0.01 µM
  relative viability: 0.828
NCI-H661; first compound 0.03162 µM
  relative viability: 0.845
NCI-H661; first compound 0.3162 µM
  relative viability: 0.773
NCI-H727; first compound 0.01 µM
  relative viability: 0.855
NCI-H727; first compound 0.03162 µM
  relative viability: 0.855
NCI-H727; first compound 0.3162 µM
  relative viability: 0.867
PC-14; first compound 0.01 µM
  relative viability: 0.774
PC-14; first compound 0.03162 µM
  relative viability: 1.04
PC-14; first compound 0.3162 µM
  relative viability: 0.917
SK-LU-1; first compound 0.03162 µM
  relative viability: 1.33
SK-LU-1; first compound 0.3162 µM
  relative viability: 1.26
SW 1573; first compound 0.01 µM
  relative viability: 1.24
SW 1573; first compound 0.03162 µM
  relative viability: 1.2
SW 1573; first compound 0.3162 µM
  relative viability: 1
